Values of other authors, collected in patent US20220313663A1, “ELTROMBOPAG DOSING REGIMEN” (NOVARTIS PHARMACEUTICALS CORPORATION, priority 2019, published 2022).

Conditions: subjects with Asian ancestry compared to the non-Asian population

## CC1=NN(c2ccc(C)c(C)c2)C(=O)/C1=N\Nc1cccc(-c2cccc(C(=O)O)c2)c1O [eltrombopag]
  eltrombopag clearance (CL/F): lower
